Source: patent US12570675B2, “Boronic acid compounds” (LG CHEM, LTD., priority 2020, dated 2026)
pIC50: −log10 of the molar value.

Each compound was assayed against Proteasome chymotrypsin-like activity (S26 protein from RPMI8226 cells) (Homo sapiens, UniProt P28074). Conditions: S26 protein from RPMI8226 cell extract 2 ug/well, substrate 20 uM, 37° C., 90 minutes; read-out: Proteasome chymotrypsin-like activity inhibition IC50.
Format: biochemical
Experimental: The abilities to inhibit the proteasome activity of the compounds described in the Examples of the present invention and boronic acid drugs were evaluated as follows.
RPMI8226 cells, which is a multiple myeloma cell line, were cultured and then separated by a centrifuge, and washed twice with phosphate buffered saline (PBS). 20 mM of a tris-HCl (pH 8.0) buffer solution was added to the washed cells, and the cells were disrupted by a homogenizer and centrifuged to obtain S26 protein from the supernatant. Suc-Leu-Leu-Val-Tyr-AMC, for a fluorogenic substrate for the chymotrypsin-like activity of the proteasome, and Z-Leu-Leu-Glu-AMC, for a fluorogenic substrate for the caspase-like activity, were purchased from Calbiochem, EMD Millipore and used. Into each well of a 96-well plate (opaque, black round bottom), 20 ul of the S26 protein (final RPMI8226 cell extract concentration: 2 ug/well), 10 ul of S26 proteasome inhibitor serially diluted from 10 uM (final DMSO concentration: 0.5%), and 20 ul of the fluorogenic substrate for the proteasome chymotrypsin-like or caspase-like activity (final concentration: 20 uM) were added and mixed and allowed to react in a 37° C. incubator for 90 minutes. The fluorescence of the fluorogenic substrate was measured by FlexStation II Fluorometer (Molecular Devices). The fluorescence inhibited by the compound diluted at each concentration was measured as the relative percentage value for the amount obtained from the treatment only with the S26 protein and the fluorogenic substrate. IC50 (inhibitory concentration 50) was expressed in terms of a concentration that inhibits 50% of the maximum fluorescence induced by the fluorogenic substrate.

Proteasome chymotrypsin-like activity (S26 protein from RPMI8226 cells), sequence (P28074 60-263 limits assumed): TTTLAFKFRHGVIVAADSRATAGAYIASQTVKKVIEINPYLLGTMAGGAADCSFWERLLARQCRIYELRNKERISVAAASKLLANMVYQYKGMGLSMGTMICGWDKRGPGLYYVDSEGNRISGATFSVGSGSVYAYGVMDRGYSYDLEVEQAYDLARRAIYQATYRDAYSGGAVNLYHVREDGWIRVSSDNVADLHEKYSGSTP

Row | SMILES | pIC50
1 | Cc1cccc(C(=O)N[C@@H](CC(C)C)C2=NOC(Cc3ccccc3)(C(=O)N[C@@H](CC(C)C)B(O)O)C2)n1 (stereo partly drawn) [Example 194, ((1R)-1-(5-benzyl-3-((S)-3-methyl-1-(6-methylpicolinamido)butyl)-4,5-dihydroisoxazol-5-carboxamido)-3-methylbutyl)boronic acid] | > 6.60
2 | CC(C)C[C@H](NC(=O)C1CC(c2ccc3ccccc3c2)=NO1)B(O)O (stereo partly drawn) [Example 17, ((1R)-3-methyl-1-(3-(naphthalen-2-yl)-4,5-dihydroisoxazol-5-carboxamido)butyl)boronic acid] | > 6.30
3 | CC(C)C[C@H](NC(=O)C1(Cc2ccccc2)CC(CNC(=O)c2ccn[nH]2)=NO1)B(O)O (stereo partly drawn) [Example 169, ((1R)-1-(3-((1H-pyrazol-5-carboxamido)methyl)-5-benzyl-4,5-dihydroisoxazol-5-carboxamido)-3-methylbutyl)boronic acid] | > 7.60
4 | COc1cccc(-c2cccc(COCC3=NOC(Cc4ccccc4)(C(=O)N[C@@H](CC(C)C)B(O)O)C3)c2)c1 (stereo partly drawn) [Example 57, ((1R)-1-(5-benzyl-3-(((3′-methoxy-[1,1′-biphenyl]-3-yl)methoxy)methyl)-4,5-dihydroisoxazol-5-carboxamido)-3-methylbutyl)boronic acid] | > 7.60
5 | COc1ccc(COCC2=NOC(Cc3ccccc3)(C(=O)N[C@@H](CC(C)C)B(O)O)C2)cc1 (stereo partly drawn) [Example 274] | > 7.00
6 | CC(C)C[C@H](NC(=O)C1CC(C(=O)NCc2cc(Cl)ccc2Cl)=NO1)B(O)O (stereo partly drawn) [Example 75, ((1R)-1-(3-((2,5-dichlorobenzyl)carbamoyl)-4,5-dihydroisoxazol-5-carboxamido)-3-methylbutyl)boronic acid] | > 7.00
7 | CC(C)C[C@H](NC(=O)C1(Cc2ccccc2)CC(CCNC(=O)c2nccc3ccccc23)=NO1)B(O)O (stereo partly drawn) [Example 253] | > 8.00
8 | CC(C)C[C@H](NC(=O)C1CC(CNC(=O)c2ccccn2)=NO1)B(O)O (stereo partly drawn) [Example 60] | > 6.60
9 | CC(C)C[C@H](NC(=O)C1CC(c2ccc(-c3ccccc3)cc2)=NO1)B(O)O (stereo partly drawn) [Example 27, ((1R)-1-(3-([1,1′-biphenyl]-4-yl)-4,5-dihydroisoxazol-5-carboxamido)-3-methylbutyl)boronic acid] | > 6.60
10 | COC[C@H](NC(=O)c1cccc(C)n1)C1=NOC(Cc2ccccc2)(C(=O)N[C@@H](CC(C)C)B(O)O)C1 (stereo partly drawn) [Example 195, ((1R)-1-(5-benzyl-3-((R)-2-methoxy-1-(6-methylpicolinamido)ethyl)-4,5-dihydroisoxazol-5-carboxamido)-3-methylbutyl)boronic acid] | > 7.30
11 | CC(C)C[C@H](NC(=O)C1CC(CNC(=O)c2cccc3ncccc23)=NO1)B(O)O (stereo partly drawn) [Example 62, ((1R)-3-methyl-1-(3-((quinolin-5-carboxamido)methyl)-4,5-dihydroisoxazol-5-carboxamido)butyl)boronic acid] | > 7.60
12 | CC(C)C[C@H](NC(=O)C1CC(Cc2ccc3ccccc3c2)=NO1)B(O)O (stereo partly drawn) [Example 18, ((1R)-3-methyl-1-(3-(naphthalen-2-ylmethyl)-4,5-dihydroisoxazol-5-carboxamido)butyl)boronic acid] | > 6.30
13 | Cc1cccc(CC2(C(=O)N[C@@H](CC(C)C)B(O)O)CC(CNC(=O)c3cc(C)nn3C(C)C)=NO2)c1 (stereo partly drawn) [Example 234, ((1R)-1-(3-((1-isopropyl-3-methyl-1H-pyrazol-5-carboxamido)methyl)-5-(3-methylbenzyl)-4,5-dihydroisoxazol-5-carboxamido)-3-methylbutyl)boronic acid] | > 8.00
14 | Cc1cccc(CC2(C(=O)N[C@@H](CC(C)C)B(O)O)CC(CNC(=O)c3cc(-c4ccccc4)nn3C(C)C)=NO2)c1 (stereo partly drawn) [Example 236, ((1R)-1-(3-((1-isopropyl-3-phenyl-1H-pyrazol-5-carboxamido)methyl)-5-(3-methylbenzyl)-4,5-dihydroisoxazol-5-carboxamido)-3-methylbutyl)boronic acid] | > 8.00
15 | CC(C)C[C@H](NC(=O)C1(Cc2ccccc2)CC(CNC(=O)c2ccc(Cl)cc2)=NO1)B(O)O (stereo partly drawn) [Example 287] | > 8.00
16 | CC(C)C[C@H](NC(=O)C1(Cc2ccccc2)CC(CNC(=O)c2cc(-c3cccnc3)nn2C(C)C)=NO1)B(O)O (stereo partly drawn) [Example 228, ((1R)-1-(5-benzyl-3-((1-isopropyl-3-(pyridin-3-yl)-1H-pyrazol-5-carboxamido)methyl)-4,5-dihydroisoxazol-5-carboxamido)-3-methylbutyl)boronic acid] | > 8.00
17 | COc1ccc(-c2cccc(COCC3=NOC(Cc4ccccc4)(C(=O)N[C@@H](CC(C)C)B(O)O)C3)c2)cc1 (stereo partly drawn) [Example 56, ((1R)-1-(5-benzyl-3-(((4′-methoxy-[1,1′-biphenyl]-3-yl)methoxy)methyl)-4,5-dihydroisoxazol-5-carboxamido)-3-methylbutyl)boronic acid] | > 8.00
18 | CC(C)C[C@H](NC(=O)C1CC(c2ccc(-c3ccccc3)nc2)=NO1)B(O)O (stereo partly drawn) [Example 32, ((1R)-3-methyl-1-(3-(6-phenylpyridin-3-yl)-4,5-dihydroisoxazol-5-carboxamido)butyl)boronic acid] | > 7.00
19 | CC(C)C[C@H](NC(=O)C1(COC2CCCCC2)CC(CNC(=O)c2nccc3ccccc23)=NO1)B(O)O (stereo partly drawn) [Example 214, ((1R)-1-(5-((cyclohexyloxy)methyl)-3-((isoquinolin-1-carboxamido)methyl)-4,5-dihydroisoxazol-5-carboxamido)-3-methylbutyl)boronic acid] | > 8.00
20 | CC(C)C[C@H](NC(=O)C1(C(F)c2ccccc2)CC(CNC(=O)c2nccc3ccccc23)=NO1)B(O)O (stereo partly drawn) [Example 114, ((1R)-1-(5-(fluoro(phenyl)methyl)-3-((isoquinolin-1-carboxamido)methyl)-4,5-dihydroisoxazol-5-carboxamido)-3-methylbutyl)boronic acid] | > 8.00
21 | O=C(N[C@@H](Cc1ccccc1)B(O)O)C1(Cc2ccccc2)CC(COc2cccc3ccccc23)=NO1 (stereo partly drawn) [Example 279, ((1R)-1-(5-benzyl-3-((naphthalen-1-yloxy)methyl)-4,5-dihydroisoxazol-5-carboxamido)-2-phenylethyl)boronic acid] | > 8.00
22 | COc1ccccc1-c1cccc(COCC2=NOC(Cc3ccccc3)(C(=O)N[C@@H](CC(C)C)B(O)O)C2)c1 (stereo partly drawn) [Example 58, [(1R)-1-[[5-benzyl-3-[[3-(2-methoxyphenyl)phenyl]methoxymethyl]-4H-1,2-oxazol-5-carbonyl]amino]-3-methyl-butyl]boronic acid] | > 7.60
23 | CC(C)C[C@H](NC(=O)C1(Cc2cccc(Cl)c2)CC(CNC(=O)c2cc(C(C)C)on2)=NO1)B(O)O (stereo partly drawn) [Example 223, ((1R)-1-(5-(3-chlorobenzyl)-3-((5-isopropylisoxazol-3-carboxamido)methyl)-4,5-dihydroisoxazol-5-carboxamido)-3-methylbutyl)boronic acid] | > 8.00
24 | O=C(NCC1=NOC(Cc2ccccc2)(C(=O)N[C@@H](Cc2ccccc2)B(O)O)C1)c1cccc2ncnn12 (stereo partly drawn) [Example 313, ((1R)-1-(3-(([1,2,4]triazolo[1,5-a]pyridin-5-carboxamido)methyl)-5-benzyl-4,5-dihydroisoxazol-5-carboxamido)-2-phenylethyl)boronic acid] | > 8.00
25 | CC(C)C[C@H](NC(=O)C1(Cc2ccccc2)CC(COCc2cccc(-c3ccccc3)n2)=NO1)B(O)O (stereo partly drawn) [Example 55, [(1R)-1-[[5-benzyl-3-[(6-phenyl-2-pyridyl)methoxymethyl]-4H-1,2-oxazol-5-carbonyl]amino]-3-methyl-butyl]boronic acid] | > 8.00
26 | CC(C)C[C@H](NC(=O)C1(C)CC(c2ccccc2)=NO1)B(O)O (stereo partly drawn) [Example 5, ((1R)-3-methyl-1-(5-methyl-3-phenyl-4,5-dihydroisoxazol-5-carboxamido)butyl)boronic acid] | < 6.00
27 | CC(C)C[C@H](NC(=O)C1CC(c2cccc3ccccc23)=NO1)B(O)O (stereo partly drawn) [Example 19, ((1R)-3-methyl-1-(3-(naphthalen-1-yl)-4,5-dihydroisoxazol-5-carboxamido)butyl)boronic acid] | > 7.00
28 | CCC1(C(=O)N[C@@H](CC(C)C)B(O)O)CC(c2cnccn2)=NO1 (stereo partly drawn) [Example 6, ((1R)-1-(5-ethyl-3-(pyrazin-2-yl)-4,5-dihydroisoxazol-5-carboxamido)-3-methylbutyl)boronic acid] | < 6.00
29 | Cc1cc(C(=O)NCC2=NOC(Cc3ccccc3)(C(=O)N[C@@H](CC(C)C)B(O)O)C2)n(-c2ccccn2)n1 (stereo partly drawn) [Example 213, ((1R)-1-(5-benzyl-3-((3-methyl-1-(pyridin-2-yl)-1H-pyrazol-5-carboxamido)methyl)-4,5-dihydroisoxazol-5-carboxamido)-3-methylbutyl)boronic acid] | > 8.00
30 | Cc1cc(C(=O)NCC2=NOC(Cc3ccccc3)(C(=O)N[C@@H](CC(C)C)B(O)O)C2)n(C2CCOCC2)n1 (stereo partly drawn) [Example 218, ((1R)-1-(5-benzyl-3-((3-methyl-1-(tetrahydro-2H-pyran-4-yl)-1H-pyrazol-5-carboxamido)methyl)-4,5-dihydroisoxazol-5-carboxamido)-3-methylbutyl)boronic acid] | > 8.00
